Reference: ChEMBL document CHEMBL4673331 (J Med Chem, 2020)

Experiments:
[1] = Drug concentration in Balb/c mouse blood at 30 mg/kg, po BID administered at 12 hrs interval immunized post 1 hr first treatment measured after 12 hrs post second dose by LC-MS/MS analysis; type: ADME, organism-based; details: whole blood, read-out: Drug uptake
[2] = Intrinsic clearance in mouse liver microsome; type: ADME; details: liver microsomes, read-out: CLH
[3] = test system: OCI-Ly3; experiment: Antiproliferative activity against human OCI-LY3 cells assessed as assessed as reduction in colony formation incubated for 14 days by soft-agar assay; type: functional, cell-based; details: dose 19.5-10000 nM, time 14.0 day
[4] = biological target: Baculoviral IAP repeat-containing protein 3/Mucosa-associated lymphoid tissue lymphoma translocation protein 1 (Homo sapiens, UniProt Q13489+Q9UDY8); experiment: Allosteric inhibition of MALT1-cIAP2 (unknown origin) fusion protein expressed in HEK293 cells assessed as reduction in NF-KappaB activation by luciferase reporter gene assay; type: cell-based
[5] = test system: BMDM; experiment: Cytotoxicity against mouse Bone marrow-derived macrophage cells assessed as reduction in cell viability by [3H]-thymidine incorporation assay; type: cell-based
[6] = biological target: T1, Mucosa-associated lymphoid tissue lymphoma translocation protein 1 (Homo sapiens, UniProt Q9UDY8); experiment: Allosteric inhibition of MALT1 in human OCI-LY3 cells assessed as reduction in BCL10 cleavage measured after 24 hrs by ELISA; type: cell-based, OCILY3
T1 sequence (Q9UDY8 whole entry): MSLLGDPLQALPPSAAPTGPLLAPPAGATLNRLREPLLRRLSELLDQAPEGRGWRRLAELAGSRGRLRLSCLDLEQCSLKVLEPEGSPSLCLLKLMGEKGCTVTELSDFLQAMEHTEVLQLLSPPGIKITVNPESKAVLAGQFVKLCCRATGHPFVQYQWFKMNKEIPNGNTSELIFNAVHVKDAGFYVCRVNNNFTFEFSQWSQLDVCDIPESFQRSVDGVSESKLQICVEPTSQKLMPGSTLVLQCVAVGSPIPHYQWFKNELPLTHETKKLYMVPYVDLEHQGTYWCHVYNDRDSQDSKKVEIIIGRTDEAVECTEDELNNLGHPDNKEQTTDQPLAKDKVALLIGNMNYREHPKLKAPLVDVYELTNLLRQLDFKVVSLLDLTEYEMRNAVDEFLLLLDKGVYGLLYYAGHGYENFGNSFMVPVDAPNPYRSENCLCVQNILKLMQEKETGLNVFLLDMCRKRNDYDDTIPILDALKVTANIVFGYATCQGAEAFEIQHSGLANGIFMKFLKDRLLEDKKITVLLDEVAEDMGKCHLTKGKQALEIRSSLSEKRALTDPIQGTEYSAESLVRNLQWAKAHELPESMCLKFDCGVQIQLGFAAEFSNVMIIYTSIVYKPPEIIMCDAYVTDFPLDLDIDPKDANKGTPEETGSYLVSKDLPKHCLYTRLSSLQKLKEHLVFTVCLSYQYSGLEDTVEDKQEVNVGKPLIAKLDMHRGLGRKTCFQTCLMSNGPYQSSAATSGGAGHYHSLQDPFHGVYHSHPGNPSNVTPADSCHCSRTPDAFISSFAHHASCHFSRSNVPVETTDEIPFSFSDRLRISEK

[7] = Drug concentration in Balb/c mouse blood at 100 mg/kg, po BID by LC-MS/MS analysis; type: ADME, organism-based; details: in vivo, read-out: Drug uptake
[8] = Dose normalized Cmax in Balb/c mouse at 3 mg/kg, po administered as cassette dosing; type: ADME, organism-based; details: in vivo
[9] = Volume of distribution at steady state in Sprague-Dawley rat at 1 mg/kg, iv administered as cassette dosing; type: ADME, organism-based; details: in vivo, read-out: Vdss
[10] = Clearance in Sprague-Dawley rat at 1 mg/kg, iv administered as cassette dosing; type: ADME, organism-based; details: in vivo
[11] = Half-life in Sprague-Dawley rat at 1 mg/kg, iv administered as cassette dosing; type: ADME, organism-based; details: in vivo
[12] = Toxicity in Balb/c mouse assessed as histopathological changes at 10 to 100 mg/kg, po BID administered at 12 hrs interval immunized post 1 hr first treatment; type: organism-based; details: in vivo, dose 10-100 mg/kg
[13] = Clearance in Balb/c mouse at 1 mg/kg, iv administered as cassette dosing; type: ADME, organism-based; details: in vivo
[14] = biological target: T2, Mucosa-associated lymphoid tissue lymphoma translocation protein 1 (Homo sapiens) (UniProt Q9UDY8); experiment: Allosteric inhibition of MALT1 protease activity in human OCI-LY3 cells assessed as accumulation of uncleaved substrate […] incubated for 24 hrs by Western blot analysis; type: cell-based; details: OCILY3, filed as negative allosteric modulator, dose 50-5000 nM
T2 sequence (whole entry): T1 sequence (Q9UDY8 whole entry)

[15] = Inhibition of mixed lymphocyte reaction in rat PBMC cells assessed as reduction in [3H]-thymidine incorporation measured after 5 days in presence of Il-7 by microbeta counting method; type: cell-based
[16] = Drug concentration in Balb/c mouse blood at 10 mg/kg, po BID administered at 12 hrs interval immunized post 1 hr first treatment measured after 12 hrs post second dose by LC-MS/MS analysis; type: ADME, organism-based; details: whole blood, read-out: Drug uptake
[17] = test system: Mus musculus; experiment: Immunomodulatory activity in human TMD8 cells xenografted po dosed SCID mouse assessed as increase in levels of uncleaved BCL10 in tumor administered twice daily for 2 weeks; type: functional, organism-based; details: dose mg/kg 10-100, time 2.0 weeks
[18] = biological target: T2, Mucosa-associated lymphoid tissue lymphoma translocation protein 1 (Homo sapiens); experiment: Allosteric inhibition of MALT1 protease activity in human OCI-LY3 cells assessed as accumulation of uncleaved substrate CYLD incubated for 24 hrs by Western blot analysis; type: cell-based; details: OCILY3, filed as negative allosteric modulator, dose 50-5000 nM
[19] = Dose normalized AUC (0 to 24 hrs) in Balb/c mouse at 3 mg/kg, po administered as cassette dosing; type: ADME, organism-based; details: in vivo
[20] = test system: OCI-Ly3; experiment: Antiproliferation activity against human OCI-LY3 cells assessed as reduction in cell viability incubated for 14 days by resazurin dye-based fluorescence analysis; type: functional; details: OCI-Ly3, 336 h

Baculoviral IAP repeat-containing protein 3/Mucosa-associated lymphoid tissue lymphoma translocation protein 1, sequence (Q13489 whole entry, one chain of several, the tested form may be a part): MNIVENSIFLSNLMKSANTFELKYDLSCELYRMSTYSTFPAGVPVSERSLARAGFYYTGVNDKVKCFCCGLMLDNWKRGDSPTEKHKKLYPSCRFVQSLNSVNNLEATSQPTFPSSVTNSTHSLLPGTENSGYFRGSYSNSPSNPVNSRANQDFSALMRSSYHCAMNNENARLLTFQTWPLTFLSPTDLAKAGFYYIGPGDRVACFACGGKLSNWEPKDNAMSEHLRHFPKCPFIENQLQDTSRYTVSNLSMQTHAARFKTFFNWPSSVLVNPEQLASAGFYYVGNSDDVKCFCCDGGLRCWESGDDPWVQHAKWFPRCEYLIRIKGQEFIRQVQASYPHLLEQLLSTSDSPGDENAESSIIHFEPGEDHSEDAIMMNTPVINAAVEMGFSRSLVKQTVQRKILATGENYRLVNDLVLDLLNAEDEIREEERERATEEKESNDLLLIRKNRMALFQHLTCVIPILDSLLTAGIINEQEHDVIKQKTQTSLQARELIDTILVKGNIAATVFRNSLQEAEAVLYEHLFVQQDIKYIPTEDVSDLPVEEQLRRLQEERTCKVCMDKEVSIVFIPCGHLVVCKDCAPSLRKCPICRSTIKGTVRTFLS

C[C@H]1COC[C@H](C)N1c1c(NC(=O)Nc2ccnc(C(F)(F)F)c2)cnc2cc(Cl)nn12
concentration at 12 h [1]: 120 nM | microsomal CLint [2]: 82 µL/min/mg | Activity [3]: Dose-dependent effect | IC50 [4]: 140 nM | IC50 [5]: > 10000 nM | IC50 [6]: 160 nM | concentration [7]: 23600 nM | Cmax/dose [8]: 549 nM | Vd [9]: 9.4 L/kg | clearance [10]: 41 mL/min/kg | half-life [11]: 3.2 h | Activity [12]: Non-Toxic | clearance [13]: 11 mL/min/kg | inhibition [14]: Dose-dependent effect | IC50 [15]: 600 nM | concentration at 12 h [16]: 40 nM | Activity [17]: Dose-dependent effect | inhibition [18]: Dose-dependent effect | AUC/dose [19]: 3100 nM·h | IC50 [20]: > 10000 nM
